# Target: T1, LXRβ (Homo sapiens, UniProt P55055)
# T1 construct: Co-transfection expression plasmids, comprising full-length LXRα (pCMX-h LXRα[…] or LXRβ (pCMX-hLXRβ)); expressed in transfected cells; host or cells: CV-1 African Green Monkey Kidney Cells
# T1 sequence (P55055 1-460): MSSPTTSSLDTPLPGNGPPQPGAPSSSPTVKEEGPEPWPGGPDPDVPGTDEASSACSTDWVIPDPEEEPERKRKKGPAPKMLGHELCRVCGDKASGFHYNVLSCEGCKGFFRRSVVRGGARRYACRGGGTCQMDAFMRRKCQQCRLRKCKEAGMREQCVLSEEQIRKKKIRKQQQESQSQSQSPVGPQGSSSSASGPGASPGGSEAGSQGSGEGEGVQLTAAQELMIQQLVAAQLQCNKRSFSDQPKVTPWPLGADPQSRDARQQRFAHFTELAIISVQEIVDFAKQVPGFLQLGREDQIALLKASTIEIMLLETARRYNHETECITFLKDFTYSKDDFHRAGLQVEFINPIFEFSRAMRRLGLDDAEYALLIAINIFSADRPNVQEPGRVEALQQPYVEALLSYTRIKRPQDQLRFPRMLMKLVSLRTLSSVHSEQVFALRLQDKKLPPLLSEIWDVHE
# T1 sequence (P19793 1-462 partner): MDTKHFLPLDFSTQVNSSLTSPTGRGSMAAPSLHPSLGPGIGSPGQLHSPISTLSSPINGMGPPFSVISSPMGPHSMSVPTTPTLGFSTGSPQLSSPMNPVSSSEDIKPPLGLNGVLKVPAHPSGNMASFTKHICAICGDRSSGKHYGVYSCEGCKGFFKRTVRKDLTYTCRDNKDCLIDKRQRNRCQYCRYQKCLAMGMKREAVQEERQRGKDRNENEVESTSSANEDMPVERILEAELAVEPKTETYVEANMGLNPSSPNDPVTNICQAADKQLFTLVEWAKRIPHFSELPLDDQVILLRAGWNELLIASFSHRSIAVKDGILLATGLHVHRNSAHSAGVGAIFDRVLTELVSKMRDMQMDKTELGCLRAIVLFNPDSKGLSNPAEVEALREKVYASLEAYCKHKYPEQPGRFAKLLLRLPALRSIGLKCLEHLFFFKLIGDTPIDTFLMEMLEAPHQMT
# Test: Co-transfection assay (LXRE luciferase reporter), LXRβ
# Assay type: cell-based
# Details: for EC50: CV-1 cells transfected with pCMX-hLXRβ and LXREx1-Tk-Luciferase, 20 hours incubation; for Emax: LXRβ co-transfection, relative to high control 1-(2,4-difluorobenzyl)-2-oxo-6-(4-phenoxyphenyl)-4-(trifluoromethyl)-1,2-dihydropyridine-3-carbonitrile, read-out: % Efficacy
# Outline: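 Luciferase signal from an LXREx1-Tk reporter was measured after transfected CV-1 cells (full-length hLXRβ, endogenous RXR) were treated with compounds for 20 h at 37 °C, ≤0.5% DMSO. EC50 came from four-parameter fits of 11-point ½-log curves; % efficacy versus a reference agonist maximum.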
SMILES,EC50,Emax
"CS(=O)(=O)c1cc(-c2cc(F)c(-n3cnc(C(F)(F)F)c3)c(-n3nncc3-c3ccc(Cl)cc3Cl)c2)cc(F)c1CO [Example 190, {3′-[5-(2,4-dichlorophenyl)-1H-1,2,3-triazol-1-yl]-3,5′-difluoro-5-(methylsulfonyl)-4′-[4-(trifluoromethyl)-1H-imidazol-1-yl]biphenyl-4-yl}methanol]",208 nM,119%
"CS(=O)(=O)c1cccc(-c2cc(F)c(-n3cnc(C(F)(F)F)c3)c(-n3nncc3-c3ccc(Cl)cc3Cl)c2)c1 [Example 191, 5-(2,4-dichlorophenyl)-1-{5-fluoro-3′-(methylsulfonyl)-4-[4-(trifluoromethyl)-1H-imidazol-1-yl]biphenyl-3-yl}-1H-1,2,3-triazole]",452 nM,102%
"CS(=O)(=O)c1cccc(-c2cc(Cl)c(-n3cnc(C(F)(F)F)c3)c(-n3nncc3-c3ccc(OC(F)(F)F)cc3)c2)c1 [Example 192, 1-{5-chloro-3′-(methylsulfonyl)-4-[4-(trifluoromethyl)-1H-imidazol-1-yl]biphenyl-3-yl}-5-{4-[(trifluoromethyl)oxy]phenyl}-1H-1,2,3-triazole]",598 nM,42%
"CS(=O)(=O)c1cc(-c2cc(Cl)c(-n3cnc(C(F)(F)F)c3)c(-n3nncc3-c3ccc(OC(F)(F)F)cc3)c2)cc(F)c1CO [Example 193, [3′-chloro-3-fluoro-5-(methylsulfonyl)-4′-[4-(trifluoromethyl)-1H-imidazol-1-yl]-5′-(5-{4-[(trifluoromethyl)oxy]phenyl}-1H-1,2,3-triazol-1-yl)biphenyl-4-yl]methanol]",598 nM,62%
"Cc1nc(C(F)(F)F)cn1-c1c(Cl)cc(-c2cccc(S(C)(=O)=O)c2)cc1-n1nncc1-c1ccc(OC(F)(F)F)cc1 [Example 195, 1-{5-chloro-3′-(methylsulfonyl)-4-[2-methyl-4-(trifluoromethyl)-1H-imidazol-1-yl]biphenyl-3-yl}-5-{4-[(trifluoromethyl)oxy]phenyl}-1H-1,2,3-triazole]",574 nM,83%
"Cc1nc(C(F)(F)F)cn1-c1c(Cl)cc(-c2cc(F)c(CO)c(S(C)(=O)=O)c2)cc1-n1nncc1-c1ccc(OC(F)(F)F)cc1 [Example 196, [3′-chloro-3-fluoro-5-(methylsulfonyl)-4′-[2-methyl-4-(trifluoromethyl)-1H-imidazol-1-yl]-5′-(5-{4-[(trifluoromethyl)oxy]phenyl}-1H-1,2,3-triazol-1-yl)biphenyl-4-yl]methanol]",241 nM,68%
"Cc1nc(C(F)(F)F)cn1-c1c(F)cc(-c2cc(Cl)c(CO)c(S(C)(=O)=O)c2)cc1-n1nncc1-c1ccc(OC(F)(F)F)cc1 [Example 197, [3-chloro-3′-fluoro-5-(methylsulfonyl)-4′-[2-methyl-4-(trifluoromethyl)-1H-imidazol-1-yl]-5′-(5-{4-[(trifluoromethyl)oxy]phenyl}-1H-1,2,3-triazol-1-yl)biphenyl-4-yl]methanol]",252 nM,76%
"Cc1nc(C(F)(F)F)cn1-c1c(F)cc(-c2cc(F)c(CO)c(S(C)(=O)=O)c2)cc1-n1nncc1-c1ccc(Cl)cc1 [Example 198, {3′-[5-(4-chlorophenyl)-1H-1,2,3-triazol-1-yl]-3,5′-difluoro-5-(methylsulfonyl)-4′-[2-methyl-4-(trifluoromethyl)-1H-imidazol-1-yl]biphenyl-4-yl}methanol]",92 nM,87%

# Further lines, results first:
EC50,Emax,SMILES
384 nM,66%,"Cc1nc(C(F)(F)F)cn1-c1c(F)cc(-c2cccc(S(=O)(=O)N3CCCC3)c2)cc1-n1nncc1-c1ccc(OC(F)(F)F)cc1 [Example 199, 1-{5-fluoro-4-[2-methyl-4-(trifluoromethyl)-1H-imidazol-1-yl]-3′-(pyrrolidin-1-ylsulfonyl)biphenyl-3-yl}-5-{4-[(trifluoromethyl)oxy]phenyl}-1H-1,2,3-triazole]"
74 nM,83%,"Cc1nc(C(F)(F)F)cn1-c1c(F)cc(-c2cc(F)c(CO)c(S(C)(=O)=O)c2)cc1-n1nncc1-c1ccc(Cl)cc1Cl [Example 200, {3′-[5-(2,4-dichlorophenyl)-1H-1,2,3-triazol-1-yl]-3,5′-difluoro-5-(methylsulfonyl)-4′-[2-methyl-4-(trifluoromethyl)-1H-imidazol-1-yl]biphenyl-4-yl}methanol]"
127 nM,81%,"Cc1nc(C(F)(F)F)cn1-c1c(F)cc(-c2cccc(S(C)(=O)=O)c2)cc1-n1nncc1-c1ccc(OC(F)(F)F)cc1 [Example 201, 1-{5-fluoro-3′-(methylsulfonyl)-4-[2-methyl-4-(trifluoromethyl)-1H-imidazol-1-yl]biphenyl-3-yl}-5-{4-[(trifluoromethyl)oxy]phenyl)-1H-1,2,3-triazole]"
106 nM,77%,"Cc1nc(C(F)(F)F)cn1-c1c(F)cc(-c2cc(F)c(CO)c(S(C)(=O)=O)c2)cc1-n1nncc1-c1ccc(OC(F)(F)F)cc1 [Example 202, [3,3′-difluoro-5-(methylsulfonyl)-4′-[2-methyl-4-(trifluoromethyl)-1H-imidazol-1-yl]-5′-(5-{4-[(trifluoromethyl)oxy]phenyl)-1H-1,2,3-triazol-1-yl)biphenyl-4-yl]methanol]"
127 nM,71%,"Cc1nc(C(F)(F)F)cn1-c1c(F)cc(-c2ccc(CO)c(S(C)(=O)=O)c2)cc1-n1nncc1-c1ccc(OC(F)(F)F)cc1 [Example 203, [3′-fluoro-3-(methylsulfonyl)-4′-[2-methyl-4-(trifluoromethyl)-1H-imidazol-1-yl]-5′-(5-{4-[(trifluoromethyl)oxy]phenyl}-1H-1,2,3-triazol-1-yl)biphenyl-4-yl]methanol]"
110 nM,97%,"Cc1nc(C(F)(F)F)cn1-c1c(F)cc(-c2cccc(S(C)(=O)=O)c2)cc1-n1nncc1-c1ccc(Cl)cc1 [Example 204, 5-(4-chlorophenyl)-1-{5-fluoro-3′-(methylsulfonyl)-4-[2-methyl-4-(trifluoromethyl)-1H-imidazol-1-yl]biphenyl-3-yl}-1H-1,2,3-triazole]"
111 nM,85%,"CNS(=O)(=O)c1cccc(-c2cc(F)c(-n3cc(C(F)(F)F)nc3C)c(-n3nncc3-c3ccc(OC(F)(F)F)cc3)c2)c1 [Example 205, 3′-fluoro-N-methyl-4′-[2-methyl-4-(trifluoromethyl)-1H-imidazol-1-yl]-5′-(5-{4-[(trifluoromethyl)oxy]phenyl}-1H-1,2,3-triazol-1-yl)biphenyl-3-sulfonamide]"
88 nM,95%,"COCc1c(F)cc(-c2cc(F)c(-n3cc(C(F)(F)F)nc3C)c(-n3nncc3-c3ccc(OC(F)(F)F)cc3)c2)cc1S(C)(=O)=O [Example 206, 1-{3′,5-difluoro-4′-[(methyloxy)methyl]-5′-(methylsulfonyl)-4-[2-methyl-4-(trifluoromethyl)-1H-imidazol-1-yl]biphenyl-3-yl}-5-{4-[(trifluoromethyl)oxy]phenyl}-1H-1,2,3-triazole]"
176 nM,76%,"COCc1c(F)cc(-c2cc(F)c(-n3cc(C(F)(F)F)nc3C)c(-n3nncc3-c3ccc(Cl)cc3)c2)cc1S(C)(=O)=O [Example 207, 5-(4-chlorophenyl)-1-{3′,5-difluoro-4′-[(methyloxy)methyl]-5′-(methylsulfonyl)-4-[2-methyl-4-(trifluoromethyl)-1H-imidazol-1-yl]biphenyl-3-yl}-1H-1,2,3-triazole]"
